Results from patent publication US10688099B2, “Methods for modulating the amount of RNA transcripts” (PTC Therapeutics, Inc., priority 2013, dated 2020).

Tested on: RNA isoforms in PNN 1-46 SMA type I patient-derived fibroblasts
Assay: RNA Abundance Modulation (RNA isoform abundance, iFPM, HiSeq RNA sequencing)
Type: cell-based, human
Settings: for RNA abundance modulation (effect on isoform fold increase): 24 hrs, PNN 1-46 fibroblasts
Method: Cells from a cell line of interest are cultured in conditions sufficient to yield the number of cells capable of generating enough RNA for subsequent sequencing steps. Cells from the tested cell line are contacted with a compound described herein.
To culture said cells, they are seeded, at appropriate concentrations in a volume of media in a cell culture container and incubated for 4, 5, 6, 7, 8, 9, 10, or more hours. A concentrated solution of compound in a vehicle (e.g., DMSO) is then added in sufficient volume to result in the intended final concentration of the compound, for example 100 nM, 500 nM, 1 μM, 5 μM, 10 μM, 15 μM, 20 μM, or more. The cells may also be treated with vehicle alone, as a control. A number of replicates of each concentration or control may be made (e.g., 2 replicates). The cells are then incubated at a constant temperature appropriate for cell culture of the particular cell line (e.g., 37° C.) for 6, 12, 18, 24, 48, or more hours. After incubation, the growth medium is removed and the cells are washed with the appropriate buffer (e.g., PBS). Cells are then removed from adherence to the cell culture container by treatment with a solution containing trypsin, and the trypsin subsequently quenched with the appropriate volume of buffer (e.g., DMEM-FBS). The cells are then pelleted with gentle centrifugation (e.g., ≤90×g centrifugal force) and resuspended in a buffer to lyse the cells for extraction of RNA. The cell lysates may then be frozen (e.g., at −80° C.) or, alternately, may immediately be used in a procedure to purify the RNA (e.g. by use of the RNEASY PLUS® minikit). The RNA from cell lysates is eluted in the appropriate volume of buffer (e.g., RNEASE-FREE H2O®). The resulting purified RNA may then be sequenced (e.g., using RNASeq) or analyzed using a human exon array (e.g., by GENECHIP® human exon array) to determine changes in the RNA levels in those cells treated with compound compared to those cells treated only with DMSO. The purified RNA may also be quantified by other methods known in the art.
Using the RNA data obtained from sequencing, exon array, or other methods, a statistical analysis can reveal changes in the RNA levels of compound-treated compared with control. For example, t-test p-values may be calculated for the data obtained through sequencing and exon array methods in order to compare compound-treated cells to those treated with the DMSO control. […] Analysis of the sequencing and exon array data may then also yield predictions about the cause of the aberrant amount of an RNA transcript in the cells (e.g., perturbation of RNA splicing, RNA transcription, or RNA stability). These predictions may be further confirmed by methods known in the art. For example, RT-PCR and RT-qPCR may be used to confirm the change in amount of RNA transcripts for one or more particular transcripts of interest.
Following the methods described above in Example 1, PNN 1-46 SMA type I patient-derived fibroblasts were treated with 300 nM or 3 μM Compounds 774 and 808 in 0.5% DMSO.
700,000 cells were seeded in 10 mL of medium (DMEM plus 10% FBS) in a T-75 flask. Cells were allowed to attach for at least 4 hrs, after which 50 μL of a 200× compound solution (100% DMSO) was added to each well, and the plate was incubated at 37° C. for 24 hrs.
At the end of the incubation period, the supernatant was removed and the cells where washed with PBS. TrypLE (Invitrogen) express solution was added (e.g. 1.5 mL per one T75 flask). The flasks were incubated for 3 to 5 min at 37° C. The trypsin was then quenched, e.g., by adding 10 mL DMEM-FBS.
Next, the cells were pelleted using gentle centrifugation without exceeding 90×g centrifugal force. The supernatant was removed and the cell pellet was re-suspended in 600 μL RLT buffer (the RLT buffer was supplemented with beta-mercaptoethanol according to the RNeasy protocol manual) by pipetting up and down until the pellet was completely dissolved […]

In the case of `CCc1nc(C)cn2nc(-c3cc(=O)n4cc(C5CCN(C)CC5)cc(C)c4n3)cc12` [Compound 774], the “RNA abundance modulation (effect on isoform fold increase)” value (0.3 μM) is reported as “modulates RNA abundance”, the “RNA abundance modulation (effect on isoform fold increase)” value (3 μM) is reported as “modulates RNA abundance” and the “FC (x + 1)” value (TACC1 NM_006283, 3 μM) is reported as 1.1645. The “L2FC (x + 1)” value (TACC1 NM_006283, 3 μM) was 0.220, the “L2abs (Cpd-DMSO)” value (TACC1 NM_006283, 3 μM) was 8.47 and the “abs (Cpd-DMSO)” value (TACC1 NM_006283, 3 μM) was 354 iFPM. The “amp FC (x + 1)” value (TACC1 NM_006283, 3 μM) was 1.16, the “ave Cpd” value (TACC1 NM_006283, 3 μM) was 2506 iFPM and the “FC (x + 1)” value (TAF2 NM_003184, 3 μM) was 0.4533. For the same molecule, the “L2FC (x + 1)” value (TAF2 NM_003184, 3 μM) was −1.141, the “L2abs (Cpd-DMSO)” value (TAF2 NM_003184, 3 μM) was 9.75 and the “abs (Cpd-DMSO)” value (TAF2 NM_003184, 3 μM) was 862 iFPM. For the same molecule, the “amp FC (x + 1)” value (TAF2 NM_003184, 3 μM) was 2.21, the “ave Cpd” value (TAF2 NM_003184, 3 μM) was 714 iFPM and the “FC (x + 1)” value (TANC2 AJ278120, 3 μM) was 1.0181. For the same molecule, the “L2FC (x + 1)” value (TANC2 AJ278120, 3 μM) was 0.026, the “L2abs (Cpd-DMSO)” value (TANC2 AJ278120, 3 μM) was 1.28 and the “abs (Cpd-DMSO)” value (TANC2 AJ278120, 3 μM) was 2 iFPM. For the same molecule, the “amp FC (x + 1)” value (TANC2 AJ278120, 3 μM) was 1.02, the “ave Cpd” value (TANC2 AJ278120, 3 μM) was 136 iFPM and the “FC (x + 1)” value (TANC2 AK001077, 3 μM) was 4.5130. The “L2FC (x + 1)” value (TANC2 AK001077, 3 μM) was 2.174, the “L2abs (Cpd-DMSO)” value (TANC2 AK001077, 3 μM) was 1.81 and the “abs (Cpd-DMSO)” value (TANC2 AK001077, 3 μM) was 4 iFPM. For the same molecule, the “amp FC (x + 1)” value (TANC2 AK001077, 3 μM) was 4.51, the “ave Cpd” value (TANC2 AK001077, 3 μM) was 4 iFPM and the “FC (x + 1)” value (TANC2 AK021886, 3 μM) was 0.4015. The “L2FC (x + 1)” value (TANC2 AK021886, 3 μM) was −1.317, the “L2abs (Cpd-DMSO)” value (TANC2 AK021886, 3 μM) was 2.40 and the “abs (Cpd-DMSO)” value (TANC2 AK021886, 3 μM) was 5 iFPM. For the same molecule, the “amp FC (x + 1)” value (TANC2 AK021886, 3 μM) was 2.49, the “ave Cpd” value (TANC2 AK021886, 3 μM) was 3 iFPM and the “FC (x + 1)” value (TANC2 BC144357, 3 μM) was 0.3363. The “L2FC (x + 1)” value (TANC2 BC144357, 3 μM) was −1.572, the “L2abs (Cpd-DMSO)” value (TANC2 BC144357, 3 μM) was 8.29 and the “abs (Cpd-DMSO)” value (TANC2 BC144357, 3 μM) was 313 iFPM. For the same molecule, the “amp FC (x + 1)” value (TANC2 BC144357, 3 μM) was 2.97, the “ave Cpd” value (TANC2 BC144357, 3 μM) was 158 iFPM and the “FC (x + 1)” value (TANC2 NM_025185, 3 μM) was 1.0124. The “L2FC (x + 1)” value (TANC2 NM_025185, 3 μM) was 0.018, the “L2abs (Cpd-DMSO)” value (TANC2 NM_025185, 3 μM) was 4.47 and the “abs (Cpd-DMSO)” value (TANC2 NM_025185, 3 μM) was 22 iFPM. The “amp FC (x + 1)” value (TANC2 NM_025185, 3 μM) was 1.01, the “ave Cpd” value (TANC2 NM_025185, 3 μM) was 1812 iFPM and the “FC (x + 1)” value (TARBP1 NM_005646, 3 μM) was 0.1192. The “L2FC (x + 1)” value (TARBP1 NM_005646, 3 μM) was −3.068, the “L2abs (Cpd-DMSO)” value (TARBP1 NM_005646, 3 μM) was 8.52 and the “abs (Cpd-DMSO)” value (TARBP1 NM_005646, 3 μM) was 367 iFPM. The “amp FC (x + 1)” value (TARBP1 NM_005646, 3 μM) was 8.39, the “ave Cpd” value (TARBP1 NM_005646, 3 μM) was 49 iFPM and the “FC (x + 1)” value (TBC1D15 AK307922, 3 μM) was 1.0252. The “L2FC (x + 1)” value (TBC1D15 AK307922, 3 μM) was 0.036, the “L2abs (Cpd-DMSO)” value (TBC1D15 AK307922, 3 μM) was 2.70 and the “abs (Cpd-DMSO)” value (TBC1D15 AK307922, 3 μM) was 6 iFPM. The “amp FC (x + 1)” value (TBC1D15 AK307922, 3 μM) was 1.03, the “ave Cpd” value (TBC1D15 AK307922, 3 μM) was 263 iFPM and the “FC (x + 1)” value (TBC1D15 NM_022771, 3 μM) was 1.1954. The “L2FC (x + 1)” value (TBC1D15 NM_022771, 3 μM) was 0.257, the “L2abs (Cpd-DMSO)” value (TBC1D15 NM_022771, 3 μM) was 3.99 and the “abs (Cpd-DMSO)” value (TBC1D15 NM_022771, 3 μM) was 16 iFPM. The “amp FC (x + 1)” value (TBC1D15 NM_022771, 3 μM) was 1.20, the “ave Cpd” value (TBC1D15 NM_022771, 3 μM) was 96 iFPM and the “FC (x + 1)” value (TBC1D15 NM_001146213, 3 μM) was 1.4119. For the same molecule, the “L2FC (x + 1)” value (TBC1D15 NM_001146213, 3 μM) was 0.498, the “L2abs (Cpd-DMSO)” value (TBC1D15 NM_001146213, 3 μM) was 8.07 and the “abs (Cpd-DMSO)” value (TBC1D15 NM_001146213, 3 μM) was 270 iFPM. The “amp FC (x + 1)” value (TBC1D15 NM_001146213, 3 μM) was 1.41, the “ave Cpd” value (TBC1D15 NM_001146213, 3 μM) was 923 iFPM and the “FC (x + 1)” value (TBC1D15 NM_001146214, 3 μM) was 1.0153. The “L2FC (x + 1)” value (TBC1D15 NM_001146214, 3 μM) was 0.022, the “L2abs (Cpd-DMSO)” value (TBC1D15 NM_001146214, 3 μM) was −0.65 and the “abs (Cpd-DMSO)” value (TBC1D15 NM_001146214, 3 μM) was 1 iFPM. For the same molecule, the “amp FC (x + 1)” value (TBC1D15 NM_001146214, 3 μM) was 1.02, the “ave Cpd” value (TBC1D15 NM_001146214, 3 μM) was 41 iFPM and the “FC (x + 1)” value (TBC1D15 NR_027449, 3 μM) was 0.1625.
